The subject of data set [1] is Rattus norvegicus. Kind of data set: Diuretic activity in po dosed albino Wistar-TNO rat assessed as 100% increase in urinary volume measured for 5 hrs. It counts as functional, Urine.
The species entered for data set [2] is Rattus norvegicus. As to the kind of experiment: Ratio of furosemide ED200 to compound ED200 for diuretic activity in albino Wistar-TNO rat. In kind it is functional, Urine.
Data set [3] has as its system Rattus norvegicus. Kind of data set: Toxicity in po dosed albino Wistar-TNO rat at 50 times effective dose for diuresis measured after chronic administration. As to conditions: in vivo. It counts as organism-based.
Data set [4] relates to Rattus norvegicus. Kind of data set: Diuretic activity in po dosed albino Wistar-TNO rat assessed as time duration of action. It counts as functional, Urine.
Data set [5] concerns Rattus norvegicus. Kind of data set: Diuretic activity in po dosed albino Wistar-TNO rat assessed as increase in urinary volume measured for 5 hrs. In kind it is functional, organism-based. The conditions noted are these: Urine.
For data set [6], the system named is Rattus norvegicus. As to the kind of experiment: Toxicity in po dosed albino Wistar-TNO rat assessed as uric acid excretion. It counts as organism-based. As to conditions: in vivo.
In data set [7] the test system is Rattus norvegicus. Kind of data set: Natriuretic activity in po dosed albino Wistar-TNO rat assessed as Na/K ratio. In kind it is functional, organism-based.
The test system of the next data set is Hamster. As to the kind of experiment: Diuretic activity in hamster. In kind it is functional, organism-based. As to conditions: Cricetinae; Urine.
The species named for a further data set is Mus musculus. As to the kind of experiment: Diuretic activity in mouse. It counts as functional, organism-based. The conditions noted are these: Urine.
Data set [8] concerns Rattus norvegicus. As to the kind of experiment: Diuretic activity in po dosed albino Wistar-TNO rat assessed as rapid onset of action. It counts as functional, organism-based. As to conditions: Urine.
The subject of data set [9] is Rattus norvegicus. Kind of data set: Diuretic activity in experimentally-induced oedema rat model. It counts as functional, organism-based. The conditions noted are these: Urine.
The test system of another data set is Rhesus monkey. Kind of data set: Diuretic activity in rhesus monkey. It counts as functional, organism-based. The conditions noted are these: Macaca mulatta; Urine.
For data set [10], the species on record is Rattus norvegicus. Kind of data set: Diuretic activity in experimentally-induced alkalosis rat model. In kind it is functional, organism-based. As to conditions: Urine.
In data set [11] the test system is Rattus norvegicus. As to the kind of experiment: Diuretic activity in po dosed albino Wistar-TNO rat measured after chronic administration. It counts as functional, organism-based. As to conditions: Urine.
For data set [12], the species on record is Rattus norvegicus. As to the kind of experiment: Diuretic activity in experimentally-induced acidosis rat model. In kind it is functional, organism-based. The conditions noted are these: Urine.
The species named for a further data set is Canis familiaris. Kind of data set: Natriuretic activity in non-loaded Beagle dog. It counts as functional, organism-based. As to conditions: Canis lupus familiaris.
Data set [13] concerns Rattus norvegicus. As to the kind of experiment: Diuretic activity in albino Wistar-TNO rat assessed as increase in urinary volume at 50 mg/kg, po measured for 5 hrs. It counts as functional, organism-based. On the set-up: dose 50 mg/kg. As to conditions: Urine.

The values that follow come from ChEMBL document CHEMBL3272074, “A new class of diuretics with the 1,4-dioxino(2,3-g)quinolone structure” (J Med Chem, 1976).

SMILES strings stand for the structures. Active and inactive are the calls of the source. The rule behind the calls is not given here.

For the compound `CCOCC1COc2c(cc3[nH]cc(C(=O)OCC)c(=N)c3c2Cl)O1` (stereo not given), the ED200 with Rattus norvegicus [1] came to 2 mg/kg.

Regarding `CCOCC1COc2cc3c(=S)c(C(=O)OCC)c[nH]c3cc2O1` (stereo not given), the ED200 in the data set with Rattus norvegicus [1] is 13 mg/kg.

For `CCOCC1COc2cc3[nH]cc(C(=O)OCC)c(=O)c3c(Cl)c2O1` (stereo not given), the ED200 in the data set with Rattus norvegicus [1] was determined as 2.5 mg/kg.

Turning to `CCOCC1COc2cc3c(=O)c(C(=O)OCC)c[nH]c3cc2O1` (stereo not given), in the data set with Rattus norvegicus [1], the ED200 worked out at 3.8 mg/kg.

For `CCOCC1COc2c(cc3[nH]cc(C(=O)OCC)c(=O)c3c2Cl)O1` (stereo not given) [QUINCARBATE], in the data set filed under Rattus norvegicus [2], the Ratio turned out to be 200. The Activity result is “Non-toxic” in the data set on Rattus norvegicus [3], “Dose-dependent effect” in the data set on Rattus norvegicus [5] and “Toxic” in the data set with Rattus norvegicus [6]. Further, in the data set with Rattus norvegicus [4], the Time was 8 h. Further, in the data set with Rattus norvegicus [1], the ED200 worked out at 0.08 mg/kg. In addition, the outcome in the data set with Rattus norvegicus [7], in the data set with Rattus norvegicus [8], in the data set with Rattus norvegicus [9], in the data set with Rhesus monkey, in the data set listed under Rattus norvegicus [10] and in the data set with Rattus norvegicus [11] was Active. In addition, the outcome in the data set listed under Rattus norvegicus [12] and in the data set listed under Canis familiaris was Active. Moreover, the result in the data set on Hamster and in the data set listed under Mus musculus was inactive.

For `CCOCC1COc2c(cc3[nH]cc(C(=O)OCC)c(=O)c3c2C(F)(F)F)O1` (stereo not given), in the data set on Rattus norvegicus [1], the ED200 was found to be 0.5 mg/kg.

Consider `CCOCC1COc2c(cc3[nH]cc(C(=O)OCC)c(=O)c3c2[N+](=O)[O-])O1` (stereo not given), for which the ED200 in the data set on Rattus norvegicus [1] turned out to be 3 mg/kg.

As for `CCOCC1COc2c(cc3[nH]cc(C(=O)O)c(=O)c3c2Cl)O1` (stereo not given), in the data set filed under Rattus norvegicus [2], the Ratio was 200. The Activity entry in the data set on Rattus norvegicus [3] is “Non-toxic”; with Rattus norvegicus [5], “Dose-dependent effect”; in the data set on Rattus norvegicus [6] it was “Toxic”. For the same compound, the Time in the data set with Rattus norvegicus [4] was determined as 8 h. Also, the ED200 in the data set on Rattus norvegicus [1] turned out to be 0.14 mg/kg. The outcome in the data set with Rattus norvegicus [7], in the data set on Rattus norvegicus [8], with Rattus norvegicus [9], in the data set with Rhesus monkey, in the data set listed under Rattus norvegicus [10] and with Rattus norvegicus [11] was Active. For the same compound, the outcome in the data set filed under Rattus norvegicus [12] and in the data set filed under Canis familiaris was Active. Moreover, the result with Hamster and in the data set listed under Mus musculus was inactive.

As to `CCOCC1COc2c(c(Cl)c3[nH]cc(C(=O)OCC)c(=O)c3c2Cl)O1` (stereo not given), in the data set with Rattus norvegicus [13], the result was inactive.

As for `CCOCC1COc2cc3c(=O)c(C(=O)OCC)c[nH]c3c(Cl)c2O1` (stereo not given), in the data set on Rattus norvegicus [13], the outcome was inactive.

As for `NS(=O)(=O)c1cc(C(=O)O)c(NCc2ccco2)cc1Cl` [FUROSEMIDE], the Activity result in the data set on Rattus norvegicus [5] is “Dose-dependent effect”. In addition, in the data set on Rattus norvegicus [1], the ED200 was 28 mg/kg.

Take `NS(=O)(=O)c1cc2c(cc1Cl)N=CNS2(=O)=O` [CHLOROTHIAZIDE]: the Activity result in the data set with Rattus norvegicus [5] is “Dose-dependent effect”. In the data set with Rattus norvegicus [1], the ED200 is 30 mg/kg.

With `CCOCC1COc2c(cc3[nH]cc(C(=O)OCC)c(=O)c3c2Br)O1` (stereo not given), the ED200 in the data set on Rattus norvegicus [1] is 0.4 mg/kg.
